Assay results from the SangsterLogP compilation.

Assays:
[1] = method code SF, from DOI: 10.1021/jm00344a020, PMID: 7057427
[2] = method code SF-AS, from DOI: 10.1021/jm00344a020, PMID: 7057427

| SMILES | logP [1] | logP [2] |
| --- | --- | --- |
| O=C(NC1CCCC1)N1CC=CCC1 | 1.92 |  |
| O=C(NN1CC=CCC1)C12CC3CC(CC(C3)C1)C2 |  | 1.45 |
| O=C(NN1CC=CCC1)C1CCCCCC1 | 1.5 |  |
| O=C(Cc1ccc2c(c1)OCO2)NN1CC=CCC1 |  | 0.68 |
| O=C(Cc1cccnc1)NN1CC=CCC1 |  | 0.05 |
| O=C(NN1CC=CCC1)c1cccc(C(=O)NN2CC=CCC2)n1 |  | -0.52 |
| O=C(COc1cccc2ccccc12)NN1CC=CCC1 |  | 1.96 |
| O=C(COc1ccccc1)NN1CC=CCC1 |  | -0.06 |

Other lines, results leading:

| logP [1] | logP [2] | SMILES |
| --- | --- | --- |
| 1.09 |  | CCOC(=O)NN1CC=CCC1 |
|  | -0.32 | O=C(NN1CC=CCC1)c1cccc[n+]1[O-] |
|  | 1.88 | O=C(NN1CC=CCC1)c1cccs1 |
|  | 0.81 | O=C(NN1CC=CCC1)c1ccco1 |
|  | 1.03 | CC(C)(C)C(=O)NN1CC=CCC1 |
| 0.45 |  | O=C(NN1CC=CCC1)C1CCCCC1 |
| 0.52 |  | CC(=O)NN1CC=CCC1 |
| 1.12 |  | O=C(NN1CC=CCC1)C1CC1 |
